The text below walks through data of publication PMC9180926, “Discovery of Novel 3-Hydroxyquinazoline-2,4(1H,3H)-Dione Derivatives: A Series of Metal Ion Chelators with Potent Anti-HCV Activities” (International Journal of Molecular Sciences, 2022).

Molecules are shown by their SMILES. Entries after “also recorded” stand apart in the source; their conditions may differ. Read-outs that look alike come from different tables or passages of the source.

For data set [1], the system named is HCV 1b replicon cells (Huh-7.5.1). The data set is described as follows: Anti-HCV assay, HCV 1b replicon cells with luciferase reporter. The data set is classed as cell-based, hepatitis C virus (HCV) subtype 1b. The conditions noted are these: HCV 1b replicon cells; for EC50: mean ± SD; for inhibition at 10 µM / inhibition at 25 µM: Huh-7.5.1, 72 h, 72 h; for inhibition at 10 µM: inhibitory rate at 10 μM, read-out: HCV Inhibition 10 μM; for inhibition at 25 µM: inhibitory rate at 25 μM, read-out: HCV Inhibition 25 μM. The method, then:
(§1) The HCV replicons were validated as convenient and effective models for testing the anti-HCV activity. Since HCV subtype 1b is one of the major subtypes worldwide, especially in China, the replicon model from the Huh-7.5.1 cell line integrating HCV 1b genome encoding the nonstructural proteins was chosen to evaluate the anti-HCV activities of 3-hydroxyquinazoline-2,4(1H,3H)-diones. The inhibitory rates of the compounds on HCV replicon cells were determined at concentrations of 25 μM and 10 μM, respectively. The broad-spectrum antiviral drug ribavirin (RBV) and the NS5B nucleoside inhibitor 2′-C-methyladenosine (2CMA) were selected as positive controls. The cytotoxicity of these compounds on replicon cells was determined using the cell counting kit-8 (CCK-8) assay.
HCV 1b replicon cells (Huh-7.5.1) containing luciferase reporter gene were kindly provided by Prof. Zhenghong Yuan (Key Laboratory of Medical Molecular Virology, Fudan University, Shanghai, China). The replicon cells were plated at 1.5 × 10^4 cells per well in a 48-well plate (Corning Inc., New York, NY, USA) at 5% CO2/37 °C. The culture medium was Dulbecco’s Modified Eagle Medium (DMEM, pH 7.3, Shanghai XP Biomed Ltd., Shanghai, China) containing 10% fetal bovine serum (Shanghai XP Biomed Ltd., Shanghai, China), 10^5 U/L penicillin, 0.1 g/L streptomycin, and 0.5 μg/mL blasticidin. After 12 h, the culture medium in each well was replaced with 300 μL of pre-prepared fresh culture medium containing test compound (dissolved in DMSO with specific concentration) or blank DMSO. The final concentration of DMSO in the culture medium in the plate was 0.1%. Each group was tested at least twice in parallel. Ribavirin and 2CMA were used as the positive controls. After incubating the drug-added plate at 5% CO2/37 °C for 72 h, the medium was removed, and each well was washed with 300 μL of phosphate buffer solution (PBS, Shanghai XP Biomed Ltd., Shanghai, China). The cells in each well were then lysed with 50 μL of 1× lysis buffer (E2820, Promega, Madison, WI, USA). Subsequently, 50 μL of 1× luciferase assay substrate (E2820, Promega, Madison, WI, USA) was mixed with 20 μL of the harvested cell lysates.
The inhibitory rates under at least six different concentration gradients were imported into GraphPad Prism 7.0 software to calculate the anti-HCV EC50 values of the compounds using the nonlinear fitting method.

A short description of data set [2]: Cytotoxicity assay (CCK-8) on replicon cells. The data set is classed as cell-based. The conditions noted are these: human, HCV 1b replicon cells (Huh-7.5.1); 50% cytotoxic concentration; CCK-8, HCV 1b replicon cells, 72 h. The procedure:
as §1
(§2) The HCV 1b replicon cells were incubated and treated with test compounds or blank DMSO in a 48-well plate using the same materials and methods as described in the experimental procedure of anti-HCV assay. The final concentration of DMSO in each well was 0.1%. After 72 h of drug treatment, the culture medium in the well plate was removed, and cells in each well were washed with 300 μL of PBS. A total of 300 μL of pre-prepared fresh culture medium containing 30 μL CCK-8 reagent (Donjindo, Kumamoto, Japan) was added to each well, and the plate was incubated at 5% CO2/37 °C for 2 h. The OD (optical density) value of each well at 450 nm was measured using a multi-function microplate reader (SpectraMax M5, Molecular Devices, San Jose, CA, USA). The death ratio of each well was calculated using the following equation, in which ODcompound or ODblank represents the measured OD value of the compound group or the blank control (DMSO), respectively:death ratio = (1−ODcompound/ODblank) × 100%(2)
(§3) The cell death data under at least six different concentration gradients were imported into GraphPad Prism 7.0.0 software (GraphPad Software Inc., San Diego, CA, USA), and the CC50 (50% cytotoxic concentration) values were calculated using the nonlinear fitting method.

For a further data set, the system named is HCV. The conditions noted are these: cited from earlier work.
Data set [3] has as its system HCV 1b replicon cells (Huh-7.5.1). Description: Cytotoxicity assay (CCK-8) on replicon cells. The conditions noted are these: replicon cells, tested concentrations. It is filed as cell-based. The method, then:
as §1, §2, §3

Data set [4] has the same test system. Description: Anti-HCV assay, HCV 1b replicon cells with luciferase reporter. As to conditions: Hepatitis C virus, Huh-7.5.1, 72 h, inhibitory rate at 5 μM. It is filed as cell-based, hepatitis C virus (HCV) subtype 1b.
Data set [5] concerns the target T1, C-terminal His-tagged NS5BΔ21 from HCV 1b subtype (Hepatitis C virus genotype 1b, UniProt Q913V3).
T1 construct: C-terminal His-tagged NS5BΔ21 from HCV 1b subtype; His tag (C); made in house
Description: Thermal shift assay with NS5B protein. The conditions noted are these: for ΔTm at 50 µM: compound 50 μM; for ΔTm at 100 µM: compound 100 μM. It is filed as binding. The source says: The stability of a protein system is enhanced after binding to its specific ligand, leading to an increase in the melting temperature (Tm). Taking advantage of this feature, the thermal shift assay was extensively used to assess the binding of small molecules to the protein targets. The metal ion chelators were thought to exert an anti-HCV effect by chelating with Mg^2+ in the catalytic center of NS5B [34, 36, 38]. […] C-terminal His-tagged NS5BΔ21 from HCV 1b subtype was used as the protein in the experiment. Compared with the blank control (DMSO), the fluorescence–temperature curves of the NS5B system in the presence of 21e (Figure 3A) and 21k (Figure 3B) at 50 μM, 100 μM, and 200 μM all shifted to the right of the axis. The Tm values of 21e and 21k increased in a concentration-dependent manner, presenting higher values than that of the blank control (Tm = 63.5 °C) at all tested concentrations.
C-terminal His-tagged NS5BΔ21 from HCV 1b subtype was expressed from pET28a HCR6 plasmid in our lab and dissolved in a Tris-HCl buffer (20 mm, pH 7.2) containing 150 mm NaCl. Then, 1 μL of corresponding concentration (1 mm, 2 mm, or 4 mm) of the test compound in DMSO or 1 μL DMSO alone was added to each well of a 96-well PCR plate (Shanghai Sangon Biotech Co., Ltd., Shanghai, China). Subsequently, 19 μL of pre-prepared PBS solution containing 10 mm MgCl2, 10× SYPRO® orange protein gel stain (Sigma-Aldrich, St. Louis, MO, USA), and 5 μM NS5B protein was added to each well and mixed. The final concentration of DMSO in each well was 5%. The PCR plate was covered with a high-permeable film, incubated at room temperature for 10 min, and then placed on the Applied Biosystems^TM 7500 Real-Time PCR System (Thermo Fisher Scientific, Waltham, MA, USA). The temperature was increased to 90 °C gradually, and the change curve of fluorescence intensity versus system temperature was recorded.

A further data set has as its system NS5B. The conditions noted are these: cited from earlier work.
Details of data set [6]: method as in PMID 22100256. As to conditions: Figure 1; read-out: NS5B CC50; cited from earlier work.
The mark [7] stands for this setting: Hepatitis C virus, Huh-7.5.1, 50% effective concentration.
[8] abbreviates: Tm of compound group minus Tm of blank control, mean ± SD, three experiments.
Where [9] appears, read: 5,6-dihydroxypyrimidine-4-carboxylic acids.

T1 sequence (Q913V3 2420-2989, stated change not applied): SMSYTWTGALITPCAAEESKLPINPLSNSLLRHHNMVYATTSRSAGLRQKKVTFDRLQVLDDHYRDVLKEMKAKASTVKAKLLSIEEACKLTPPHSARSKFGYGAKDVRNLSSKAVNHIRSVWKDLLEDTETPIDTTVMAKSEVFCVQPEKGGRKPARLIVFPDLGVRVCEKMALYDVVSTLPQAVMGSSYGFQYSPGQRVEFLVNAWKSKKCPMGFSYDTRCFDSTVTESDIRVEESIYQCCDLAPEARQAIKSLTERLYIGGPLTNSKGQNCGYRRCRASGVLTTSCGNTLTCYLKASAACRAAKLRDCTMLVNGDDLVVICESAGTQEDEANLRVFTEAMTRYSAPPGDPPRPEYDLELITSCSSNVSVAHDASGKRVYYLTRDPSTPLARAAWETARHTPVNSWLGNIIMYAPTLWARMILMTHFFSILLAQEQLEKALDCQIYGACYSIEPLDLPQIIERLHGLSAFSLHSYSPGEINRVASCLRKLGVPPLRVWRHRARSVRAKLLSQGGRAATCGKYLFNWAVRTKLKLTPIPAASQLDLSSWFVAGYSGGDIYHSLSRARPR

Consider `C[C@@]1(O)[C@H](O)[C@@H](CO)O[C@H]1n1cnc2c(N)ncnc21` [2CMA, 2′-C-methyladenosine, reference compound], for which the values for the EC50 (in data set [1] (setting [7]); in the data set on HCV (reported)) were 0.36 ± 0.03 µM and 0.3 µM, respectively. The CC50 at 72 h in data set [2] was more than 10 µM.
Turning to `O=c1c2ccccc2n(CCc2ccccc2Cl)c(=O)n1O` [10c, 1-(2-Chlorophenethyl)-3-hydroxyquinazoline-2,4(1H,3H)-dione], the EC50 in data set [1] (setting [7]) is more than 12.2 µM. In data set [1] (Hepatitis C virus), the inhibition at 10 µM came to 33.4% and the inhibition at 25 µM came out at 67.8%. The same compound gave a CC50 at 72 h in data set [2] of 12.2 µM. For the same compound, the “cytotoxicity (in words)” value in data set [3] is on record as “some cytotoxicity”.
In data set [1] (setting [7]), `O=c1c2ccccc2n(CCc2ccc(F)cc2)c(=O)n1O` [10d, 1-(4-Fluorophenethyl)-3-hydroxyquinazoline-2,4(1H,3H)-dione] had an EC50 of 13.3 ± 0.9 µM. In data set [1] (Hepatitis C virus), the inhibition at 10 µM was 36.4% and the inhibition at 25 µM came to 75.7%. The CC50 at 72 h in data set [2] came to 22.2 ± 4.6 µM. Moreover, the “cytotoxicity (in words)” value in data set [3] is “some cytotoxicity”.
With `O=c1[nH]c2cc(-c3ccc(C(F)(F)F)cc3)ccc2c(=O)n1O` [21h, 3-Hydroxy-7-(4-(trifluoromethyl)phenyl)quinazoline-2,4(1H,3H)-dione], the EC50 in data set [1] (50% effective concentration) is 9.6 ± 2.7 µM; in data set [1] (setting [7]), less than 10 µM. Moreover, the inhibition at 10 µM in data set [1] (Hepatitis C virus) stood at 53.8%. The CC50 at 72 h in data set [2] was more than 50 µM. In data set [3], the “cytotoxicity (in words)” value was “no cytotoxicity was observed”. For the same compound, in data set [4], 5 µM produced 5% inhibition.
For `O=c1[nH]c2cc(-c3cccc([N+](=O)[O-])c3)ccc2c(=O)n1O` [21k, 3-Hydroxy-7-(3-nitrophenyl)quinazoline-2,4(1H,3H)-dione], the inhibition at 10 µM in data set [1] (Hepatitis C virus) was 70.6%. Further, in data set [2], the CC50 at 72 h worked out at 40.9 ± 3.5 µM. For the same compound, in data set [5] (setting [8]), the ΔTm at 50 µM is 0.87 ± 0.12 °C and the ΔTm at 100 µM stood at 1.6 ± 0.08 °C. Moreover, the ΔTm at 200 µM in data set [5] (compound 200 μM, Tm of compound group minus Tm of blank control, mean ± SD, three experiments, read-out: ΔTm 200 μM) came out at 2.1 ± 0.44 °C. The “Tm of NS5B complexed with compound” value in data set [5] (in Figure 3, blank control Tm = 63.5 °C) stood at 65.6 °C. This compound also came in with an inhibition at 5 µM in data set [4] of 55%.
Take `O=c1[nH]c2cc(-c3cc4ccccc4o3)ccc2c(=O)n1O` [21t, 7-(Benzofuran-2-yl)-3-hydroxyquinazoline-2,4(1H,3H)-dione]: in data set [1] (Hepatitis C virus), the inhibition at 10 µM came out at 68.3% and the inhibition at 25 µM worked out at 78.5%. Moreover, the CC50 at 72 h in data set [2] was more than 50 µM. Also, the “cytotoxicity (in words)” value in data set [3] is recorded as “no obvious cytotoxic effect; also recorded: No cytotoxic effect was observed”.
For the compound `Nc1ncnc2c1ncn2[C@@H]1O[C@H](COP(=O)(O)OP(=O)(O)O)[C@@H](O)[C@H]1O` [ADP, adenosine diphosphate, reference compound], in data set [5] (setting [8]), the ΔTm at 50 µM was determined as 0.44 ± 0.11 °C and the ΔTm at 100 µM worked out at 0.62 ± 0.05 °C. Moreover, the “ΔTm 200 μM” value in data set [5] (compound 200 μM, Tm of compound group minus Tm of blank control, mean ± SD, three experiments) is 0.88 ± 0.06 °C. The ΔTm at 200 µM in data set [5] (read-out: ΔTm 200 μM, compound 200 μM, Tm of compound group minus Tm of blank control, mean ± SD, three experiments) amounted to 0.87 °C.
`NC(=O)c1ncn([C@@H]2O[C@H](CO)[C@@H](O)[C@H]2O)n1` [RBV, ribavirin, reference compound]: the EC50 in data set [1] (setting [7]) was 20 ± 4.1 µM; in the data set on HCV (cellular level, reported) it was 14 µM. The inhibition at 25 µM in data set [1] (Hepatitis C virus) is 53.2%. Also, the CC50 at 72 h in data set [2] was determined as 45.5 ± 2.6 µM.
As for `O=C(O)C(=O)CC(=O)c1ccccc1` [compound 1], in the data set on NS5B (α,γ-diketo acids), the IC50 was 5.7 µM.
`N#Cc1c(Cl)cc(Cl)cc1COc1cccc(C(=O)CC(=O)C(=O)O)c1` [compound 2]: in the data set on NS5B (α,γ-diketo acids), the IC50 is 0.045 µM.
As to `O=C(O)c1occc(=O)c1O` [compound 3], the IC50 in the data set on NS5B (meconic acids) was 2.25 µM. Also, the EC50 in the data set on HCV (cellular level) was more than 50 µM.
Regarding `O=C(O)c1nc(-c2cccs2)nc(O)c1O` [compound 4], the IC50 in the data set on NS5B (setting [9]) is 2.6 µM. The EC50 with HCV (cellular level) was more than 100 µM.
For `O=C(NCc1ccccc1Cl)Nc1cscc1-c1nc(O)c(O)c(C(=O)O)n1` [compound 5], the IC50 with NS5B (setting [9]) was 0.15 µM. Besides, the EC50 in the data set with HCV (cellular level) is 9.3 µM.
Regarding `O=C1Cc2cc(-c3ccco3)ccc2C(=O)N1O` [compound 6], in the data set on NS5B (2-hydroxyisoquinoline-1,3-diones), the IC50 was 1.3 µM. Further, in the data set on HCV (cellular level, reported), the EC50 is 1.9 µM. Besides, in data set [6], the CC50 was 13 µM.
